In brackets after ≈: the same amount, converted by molar mass. Read-outs that look alike come from different tables or passages of the source.
Key:
[1] = target: T1, MexAB-OprM efflux transporter (Pseudomonas aeruginosa, UniProt P52002); conditions: wild-type P. aeruginosa, background statement; cited from earlier work
T1 construct: MexAB-OprM efflux transporter present in wild-type P. aeruginosa; endogenous in cells; host or cells: wild-type P. aeruginosa

[2] = tested on: MreB; conditions: P. aeruginosa; background statement; cited from earlier work
[3] = tested on: P. Aeruginosa PAO1; assay: MIC assay in the presence of a bacterial efflux pump inhibitor (EPI), P. aeruginosa PAO1; assay type: cell-based, Pseudomonas aeruginosa; conditions: in the presence of 12.5 μg/ml of N-(((2S,4R)-4-(aminomethyl)pyrrolidin-2-yl)methyl)-6-(4-fluorophenyl)-1H-indole-2-carboxamide
Description: The ability of a compound to produce an antibiotic effect can be determined using a method as described in Example 11. Data for representative compounds used in combination with the bacterial efflux pump inhibitor (EPI) N-(((2S,4R)-4-(aminomethyl)pyrrolidin-2-yl)methyl)-6-(4-fluorophenyl)-1H-indole-2-carboxamide is shown in Table 1.
(§1) MIC assays were conducted in accordance with Clinical and Laboratory Standards Institute (CLSI) guidelines for broth microdilution.
The EPI assay for the purposes of these studies represents a MIC assay in which the MIC of the antibiotic against the bacteria is tested in the presence of an experimental efflux pump inhibitor (EPI). The highest concentration of the EPI present in the assay typically is ½ of the intrinsic MIC of the compound. […] Using serial dilutions of the EPI, its enhancement of antibiotic activity was then evaluated. The relative EPI activity was decided by comparing the MIC of the antibiotic in the presence of the EPI compound with the intrinsic MIC of the antibiotic alone. For comparative purposes, we generally used EPIs at concentration of 12.5 and 6.25 μg/ml against varying concentration of our test antibiotic.

[4] = tested on: E. coli ATCC 25922; assay: Intrinsic MIC assay (broth microdilution), E. coli; assay type: cell-based, Escherichia coli; conditions: Escherichia coli
Description: as §1
(§2) The intrinsic MIC of the experimental EPIs was tested with the method described. The 2-fold serial dilution begins with 100 μg/mL of tested compound in the first column of the 96-well plates. The following Gram-negative bacterial strains were included in these assays: • Escherichia coli ATCC 25922 • Klebsiella pneumoniae ATCC 13883 and ATCC 10031 • Pseudomonas aeruginosa ATCC 27853. • Pseudomonas aeruginosa PAO1 • Acinetobacter baumannii ATCC 19606

[5] = tested on: A. baumannii ATCC 19606; assay: Intrinsic MIC assay (broth microdilution), A. baumannii; assay type: cell-based, Acinetobacter baumannii; conditions: Acinetobacter baumannii
Description: as §1, §2

[6] = tested on: P. Aeruginosa PAO1; assay: Intrinsic MIC assay (broth microdilution), P. aeruginosa PAO1; assay type: cell-based, Pseudomonas aeruginosa; conditions: for MIC: Pseudomonas aeruginosa, read-out: Intrinsic MIC
Description: as §1, §2

[7] = tested on: K. pneumoniae ATCC 10031; assay: Intrinsic MIC assay (broth microdilution), K. pneumoniae; assay type: cell-based, Klebsiella pneumoniae; conditions: Klebsiella pneumoniae
Description: as §1, §2

[8] = ATCC25922, E. coli ATCC 25922, read-out: Intrinsic MIC
[9] = ATCC19606, A. baumannii ATCC 19606, read-out: Intrinsic MIC
[10] = ATCC10031, K. pneumoniae ATCC 10031, read-out: Intrinsic MIC
[11] = 18 h, P. Aeruginosa PAO1, without EPI

T1 sequence (P52477 24-383): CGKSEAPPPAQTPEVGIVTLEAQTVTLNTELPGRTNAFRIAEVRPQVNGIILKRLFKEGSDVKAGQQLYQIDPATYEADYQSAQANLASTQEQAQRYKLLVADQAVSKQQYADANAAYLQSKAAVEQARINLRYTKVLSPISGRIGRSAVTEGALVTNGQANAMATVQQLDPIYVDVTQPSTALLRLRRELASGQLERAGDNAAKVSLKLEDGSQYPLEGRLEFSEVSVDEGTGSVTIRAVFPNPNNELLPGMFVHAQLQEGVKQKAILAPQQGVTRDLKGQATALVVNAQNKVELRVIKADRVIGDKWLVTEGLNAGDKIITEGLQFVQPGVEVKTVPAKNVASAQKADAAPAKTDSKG
T1 sequence (P52002 whole entry): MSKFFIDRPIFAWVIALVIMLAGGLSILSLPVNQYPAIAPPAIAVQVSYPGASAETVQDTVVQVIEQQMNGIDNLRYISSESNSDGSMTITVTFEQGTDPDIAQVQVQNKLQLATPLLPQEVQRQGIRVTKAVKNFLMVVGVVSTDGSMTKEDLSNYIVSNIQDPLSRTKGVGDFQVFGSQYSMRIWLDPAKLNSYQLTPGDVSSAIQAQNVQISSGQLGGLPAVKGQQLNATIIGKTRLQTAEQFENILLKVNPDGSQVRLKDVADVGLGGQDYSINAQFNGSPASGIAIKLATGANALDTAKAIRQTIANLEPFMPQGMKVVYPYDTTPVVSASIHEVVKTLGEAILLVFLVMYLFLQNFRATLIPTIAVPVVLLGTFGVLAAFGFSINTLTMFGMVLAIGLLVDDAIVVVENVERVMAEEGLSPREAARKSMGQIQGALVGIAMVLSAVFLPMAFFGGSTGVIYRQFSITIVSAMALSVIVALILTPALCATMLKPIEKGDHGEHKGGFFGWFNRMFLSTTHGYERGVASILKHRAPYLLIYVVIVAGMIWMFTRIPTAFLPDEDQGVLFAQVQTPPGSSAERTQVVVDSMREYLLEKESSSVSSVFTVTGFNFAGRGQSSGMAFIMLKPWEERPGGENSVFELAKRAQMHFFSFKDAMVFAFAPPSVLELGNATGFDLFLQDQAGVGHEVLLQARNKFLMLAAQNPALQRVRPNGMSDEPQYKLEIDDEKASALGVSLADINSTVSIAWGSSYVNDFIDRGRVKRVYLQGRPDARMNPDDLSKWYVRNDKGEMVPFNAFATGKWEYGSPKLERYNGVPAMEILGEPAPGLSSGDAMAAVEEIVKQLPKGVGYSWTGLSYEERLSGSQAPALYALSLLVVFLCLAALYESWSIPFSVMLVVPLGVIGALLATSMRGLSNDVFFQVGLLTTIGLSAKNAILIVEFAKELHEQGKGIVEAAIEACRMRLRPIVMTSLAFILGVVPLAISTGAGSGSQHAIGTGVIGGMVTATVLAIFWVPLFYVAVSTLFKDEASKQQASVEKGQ
T1 sequence (Q51487 18-485, further chain): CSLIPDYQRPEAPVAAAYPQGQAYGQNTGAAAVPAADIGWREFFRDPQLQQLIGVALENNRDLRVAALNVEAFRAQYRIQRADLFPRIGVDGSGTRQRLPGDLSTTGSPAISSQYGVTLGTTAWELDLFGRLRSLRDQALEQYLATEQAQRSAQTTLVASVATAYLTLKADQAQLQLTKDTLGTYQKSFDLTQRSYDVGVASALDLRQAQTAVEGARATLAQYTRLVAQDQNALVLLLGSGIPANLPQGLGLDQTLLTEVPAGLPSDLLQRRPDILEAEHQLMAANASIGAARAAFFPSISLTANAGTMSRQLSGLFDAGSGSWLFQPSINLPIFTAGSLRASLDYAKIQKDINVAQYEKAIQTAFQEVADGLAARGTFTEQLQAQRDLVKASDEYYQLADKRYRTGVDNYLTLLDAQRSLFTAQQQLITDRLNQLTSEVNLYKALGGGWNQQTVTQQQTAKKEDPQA

| SMILES | MIC in the Presence of EPI* [3] [mg/L] | MIC [4, 8] [mg/L] | MIC [5, 9] [mg/L] | Intrinsic MIC ([6]; P. Aeruginosa PAO1, without EPI) [mg/L] | MIC [7, 10] [mg/L] | MIC [6, 11] [mg/L] | Efflux transporter substrate [1] | MreB inhibition [2] | MIC ([4]; ATCC25922, read-out: Intrinsic MIC) [mg/L] | MIC ([5]; ATCC19606, read-out: Intrinsic MIC) [mg/L] | MIC ([6]; PAO1, 18 h) [mg/L] | MIC ([7]; ATCC10031, read-out: Intrinsic MIC) [mg/L] |
| --- | --- | --- | --- | --- | --- | --- | --- | --- | --- | --- | --- | --- |
| NC1CCCc2c1[nH]c1ccc(Br)cc21 (centres unmarked) [CBR-4830] | – | – | – | – | – | – | substrate for the MexAB-OprM efflux transporter | effective MreB inhibitor | – | – | – | – |
| NC1CCCCc2c1[nH]c1cc(Cl)c(Cl)cc21 (centres unmarked) [Example 21, 2,3-Dichloro-5,6,7,8,9,10-hexahydrocyclohepta[b]indol-6-amine hydrochloric acid] | 32 | – | – | – | – | – | – | – | 16 (≈ 59.4 µM) | 16 (≈ 59.4 µM) | 256 (≈ 951 µM) | 8 (≈ 29.7 µM) |
| CC(NCCCNC(=O)c1ccc(Cl)o1)c1cc2cc(Br)ccc2[nH]1 (centres unmarked) [Example 26, N-(3-((1-(5-Bromo-1H-indol-2-yl)ethyl)amino)propyl)-5-chlorofuran-2-carboxamide] | 16 | 64 (≈ 151 µM) | 128 (≈ 301 µM) | – | 16 (≈ 37.7 µM) | > 256 | – | – | – | – | – | – |
| CC(NCCCNC(=O)C1CCCCC1)c1cc2cc(Br)ccc2[nH]1 (centres unmarked) [Example 31, N-(3-((1-(5-Bromo-1H-indol-2-yl)ethyl)amino)propyl)cyclohexanecarboxamide] | 128 | 64 (≈ 157 µM) | 64 (≈ 157 µM) | – | 16 (≈ 39.4 µM) | > 256 | – | – | – | – | – | – |
| CC(NCCc1ccccc1)c1cc2cc(Br)ccc2[nH]1 (centres unmarked) [Example 33, 1-(5-Bromo-1H-indol-2-yl)-N-phenethylethan-1-amine] | 32 | 16 (≈ 46.6 µM) | 32 (≈ 93.2 µM) | – | 4 (≈ 11.7 µM) | > 256 | – | – | – | – | – | – |
| CC(NCCNC(=O)c1ccc(Cl)c(Cl)c1)c1cc2cc(Br)ccc2[nH]1 (centres unmarked) [Example 34, N-(2-((1-(5-Bromo-1H-indol-2-yl)ethyl)amino)ethyl)-3,4-dichlorobenzamide] | 32 | 32 (≈ 70.3 µM) | 64 (≈ 141 µM) | – | 4 (≈ 8.79 µM) | > 256 | – | – | – | – | – | – |
| CC(NCC1CC1)c1cc2cc(Br)ccc2[nH]1 (centres unmarked) [Example 35, 1-(5-Bromo-1H-indol-2-yl)-N-(cyclopropylmethyl)ethan-1-amine] | 256 | 128 (≈ 437 µM) | 128 (≈ 437 µM) | – | 64 (≈ 218 µM) | > 256 | – | – | – | – | – | – |
| CCNCCNC(C)c1cc2cc(Br)ccc2[nH]1 (centres unmarked) [Example 39, N^1-(1-(5-Bromo-1H-indol-2-yl)ethyl)-N^2-ethylethane-1,2-diaminehydrochloricacid] | > 256 | 256 (≈ 825 µM) | 256 (≈ 825 µM) | – | 128 (≈ 413 µM) | > 256 | – | – | – | – | – | – |

Second part, led by results:

| MIC in the Presence of EPI* [3] [mg/L] | MIC [4, 8] [mg/L] | MIC [5, 9] [mg/L] | Intrinsic MIC ([6]; P. Aeruginosa PAO1, without EPI) [mg/L] | MIC [7, 10] [mg/L] | MIC [6, 11] [mg/L] | SMILES | Efflux transporter substrate [1] | MreB inhibition [2] | MIC ([4]; ATCC25922, read-out: Intrinsic MIC) [mg/L] | MIC ([5]; ATCC19606, read-out: Intrinsic MIC) [mg/L] | MIC ([6]; PAO1, 18 h) [mg/L] | MIC ([7]; ATCC10031, read-out: Intrinsic MIC) [mg/L] |
| --- | --- | --- | --- | --- | --- | --- | --- | --- | --- | --- | --- | --- |
| 1 | 16 (≈ 66.4 µM) | 8 (≈ 33.2 µM) | 32 | 8 (≈ 33.2 µM) | – | NC1CCc2c1[nH]c1ccc(Cl)c(Cl)c21 (centres unmarked) [Example 22, 7,8-Dichloro-1,2,3,4-tetrahydrocyclopenta[b]indol-3-amine] | – | – | – | – | – | – |
| 8 | 16 (≈ 66.4 µM) | 16 (≈ 66.4 µM) | – | 8 (≈ 33.2 µM) | 64 (≈ 265 µM) | NC1CCc2c1[nH]c1cc(Cl)c(Cl)cc21 (centres unmarked) [Example 23, 6,7-Dichloro-1,2,3,4-tetrahydrocyclopenta[b]indol-3-amine] | – | – | – | – | – | – |
| 16 | 8 (≈ 16.8 µM) | 16 (≈ 33.7 µM) | – | 1 (≈ 2.1 µM) | > 256 | CC(NCCCNC(=O)c1cc(Cl)c(Cl)s1)c1cc2cc(Br)ccc2[nH]1 (centres unmarked) [Example 25, N-(3-((1-(5-Bromo-1H-indol-2-yl)ethyl)amino)propyl)-4,5-dichlorothiophene-2-carboxamide] | – | – | – | – | – | – |
| 32 | 32 (≈ 68.2 µM) | 64 (≈ 136 µM) | – | 4 (≈ 8.52 µM) | > 256 | CC(NCCCNC(=O)c1ccc(Cl)c(Cl)c1)c1cc2cc(Br)ccc2[nH]1 (centres unmarked) [Example 30, N-(3-((1-(5-Bromo-1H-indol-2-yl)ethyl)amino)propyl)-3,4-dichlorobenzamide] | – | – | – | – | – | – |
| 64 | 32 (≈ 108 µM) | 64 (≈ 217 µM) | – | 16 (≈ 54.2 µM) | > 256 | CCCCNC(C)c1cc2cc(Br)ccc2[nH]1 (centres unmarked) [Example 32, N-(1-(5-Bromo-1H-indol-2-yl)ethyl)butan-1-amine] | – | – | – | – | – | – |
| 32 | 16 (≈ 48.6 µM) | 32 (≈ 97.2 µM) | – | 8 (≈ 24.3 µM) | > 256 | NC(CCc1ccccc1)c1cc2cc(Br)ccc2[nH]1 (centres unmarked) [Example 36, 1-(5-Bromo-1H-indol-2-yl)-3-phenylpropan-1-amine] | – | – | – | – | – | – |
| 16 | 16 (≈ 34.1 µM) | 32 (≈ 68.2 µM) | – | 4 (≈ 8.52 µM) | > 256 | CC(NCCCC(=O)Nc1ccc(Cl)c(Cl)c1)c1cc2cc(Br)ccc2[nH]1 (centres unmarked) [Example 37, 4-((1-(5-Bromo-1H-indol-2-yl)ethyl)amino)-N-(3,4-dichlorophenyl)butanamide] | – | – | – | – | – | – |
| 16 | 16 (≈ 35.1 µM) | 64 (≈ 140 µM) | – | 4 (≈ 8.77 µM) | > 256 | CC(NCCCCOc1ccc(Cl)c(Cl)c1)c1cc2cc(Br)ccc2[nH]1 (centres unmarked) [Example 38, N-(1-(5-Bromo-1H-indol-2-yl)ethyl)-4-(3,4-dichlorophenoxy)butan-1-amine] | – | – | – | – | – | – |
